Results reported in US12486270B2, “Receptor tyrosine kinase inhibitors for treatment of protein kinase modulation-responsive disease or disorder” (THE UNITED STATES OF AMERICA, as represented by the …, priority 2019, dated 2025).

Tests used:
LC3B [1] = experiment: LC3B autophagy marker by immunoblotting in HT-29 cells; format: cell-based, human; conditions: for LC3B accumulation in cells treated with 1 μM NVP or NVP-Iso: spautin 5 μM, 3-MA 5 mM, chloroquine 10 μM
Method: Western blotting. Protein lysates were separated by SDS-PAGE and then transferred to a nitrocellulose membrane. After blocking, membranes were incubated overnight with antibodies to LC3 (rabbit Monoclonal antibody, Cell Signaling).

SW620 cells = experiment: Cleaved caspase-3 immunofluorescence microscopy in colorectal cancer cells (SW620); format: cell-based, human; conditions: 72 hours
Method: Cell viability was also measured by detection of cell-associated cleaved caspase-3. Cells were grown on gelatin-coated glass chamber slides, fixed in 4% paraformaldehyde, immune-stained with rabbit monoclonal antibody to cleaved Caspase 3 (1:100 Cell Signaling Technology) followed by Alexa Fluor 488-conjugated anti-rabbit IgG (1:400 Invitrogen) and mounted with Vectastain containing DAPI (Vector Laboratories). The slides were imaged through a Zeiss LSM780 confocal microscope. Image quantification (cleaved Caspase-3^+ nucleiltotal nuclei) was performed by CellProfiler software.

SW620 = experiment: Cell cycle analysis by flow cytometry in colorectal cancer cells (SW620); format: cell-based, human; conditions: 72 hours; compared to control and NVP/NVP-Iso
Method: Cell cycle was assessed by flow cytometry. Adherent cells were harvested, washed with PBS and fixed for 30 minutes in cold 70% ethanol at 4° C. Cells were washed twice with PBS, treated with 2.5 μg/mL RNaseA (ThermoFisher, 12091039) for 30 minutes at room temperature, and then stained with 10 μg propidium iodide for 15 minutes prior to analysis performed on FACS Canton (BD Biosciences; San Jose, CA) and cell cycled analyzed (FloJo software).

EphA2 [2] = biological target: T1, EphA2 (Homo sapiens (Human), UniProt P29317); experiment: Endogenous EphA2 tyrosine phosphorylation by ELISA in RKO cell lysates; format: cell-based
T1 sequence (P29317 24-976): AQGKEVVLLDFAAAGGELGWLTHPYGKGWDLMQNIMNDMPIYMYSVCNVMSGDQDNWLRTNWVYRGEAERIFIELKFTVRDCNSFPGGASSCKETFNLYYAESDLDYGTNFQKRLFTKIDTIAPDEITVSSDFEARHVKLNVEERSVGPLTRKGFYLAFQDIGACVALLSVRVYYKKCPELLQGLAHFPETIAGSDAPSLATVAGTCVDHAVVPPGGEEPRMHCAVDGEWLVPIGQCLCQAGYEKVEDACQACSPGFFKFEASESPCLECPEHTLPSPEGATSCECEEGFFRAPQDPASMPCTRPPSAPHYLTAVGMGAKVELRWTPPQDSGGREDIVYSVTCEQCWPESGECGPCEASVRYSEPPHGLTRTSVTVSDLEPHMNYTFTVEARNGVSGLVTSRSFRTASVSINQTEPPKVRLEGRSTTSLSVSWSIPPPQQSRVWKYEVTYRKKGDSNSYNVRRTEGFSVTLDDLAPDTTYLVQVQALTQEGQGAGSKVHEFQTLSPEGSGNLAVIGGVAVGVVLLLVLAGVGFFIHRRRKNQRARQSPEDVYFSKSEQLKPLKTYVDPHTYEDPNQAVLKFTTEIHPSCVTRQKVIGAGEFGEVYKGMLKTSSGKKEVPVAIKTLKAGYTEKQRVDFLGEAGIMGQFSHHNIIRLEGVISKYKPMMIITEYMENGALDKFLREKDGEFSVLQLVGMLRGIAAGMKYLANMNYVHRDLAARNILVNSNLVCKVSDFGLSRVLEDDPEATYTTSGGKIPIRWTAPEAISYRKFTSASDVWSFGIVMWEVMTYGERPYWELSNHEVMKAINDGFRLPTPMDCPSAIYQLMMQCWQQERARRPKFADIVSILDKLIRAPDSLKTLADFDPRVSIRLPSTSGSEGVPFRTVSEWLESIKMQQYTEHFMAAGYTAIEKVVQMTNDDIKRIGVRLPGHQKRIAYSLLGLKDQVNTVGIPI
Method: (§1) ELISA. ELISA plates (ThermoFisher Scientific, Immulon 4HBX, 3855) were coated overnight at 4° C. with capture antibody 75 ng/well in PBS, and blocked with 5% BSA (Sigma-Aldrich, St. Louis, MO) in PBS for two hours at room temperature. Capture antibodies for EphB4 was goat polyclonal antibody (R&D Systems AF3038); for EphA2 was goat polyclonal antibody (R&D Systems AF3035); 10 ug of cell lysate was applied to the ELISA well for two hours at room temperature. The amount of tyrosine phosphorylation was measured with pTyr-HRP antibody (R&D Systems, HAM1676). The ELISA was developed with 3,3′,5,5′-Tetramethylbenzidine (TMB) (ThermoFisher Scientific, 7588927) for 15 minutes and stopped with 1M H2SO4 (Sigma-Aldrich, 258105). Absorbance at 450 nm was measured using POLARstar Optima plate reader (BMG Labtech, Cary, NC). All conditions were tested in duplicate. pEphB2 was measured by ELISA (Ray Biotech, PEL-EphB2-Y) according to the manufacturer's recommendations.

EphB2 = EphB2 (Homo sapiens (Human), UniProt P29323); experiment: Endogenous EphB2 tyrosine phosphorylation by ELISA in Colo-205 cell lysates; format: cell-based
Chain of EphB2 (P29323 19-1055): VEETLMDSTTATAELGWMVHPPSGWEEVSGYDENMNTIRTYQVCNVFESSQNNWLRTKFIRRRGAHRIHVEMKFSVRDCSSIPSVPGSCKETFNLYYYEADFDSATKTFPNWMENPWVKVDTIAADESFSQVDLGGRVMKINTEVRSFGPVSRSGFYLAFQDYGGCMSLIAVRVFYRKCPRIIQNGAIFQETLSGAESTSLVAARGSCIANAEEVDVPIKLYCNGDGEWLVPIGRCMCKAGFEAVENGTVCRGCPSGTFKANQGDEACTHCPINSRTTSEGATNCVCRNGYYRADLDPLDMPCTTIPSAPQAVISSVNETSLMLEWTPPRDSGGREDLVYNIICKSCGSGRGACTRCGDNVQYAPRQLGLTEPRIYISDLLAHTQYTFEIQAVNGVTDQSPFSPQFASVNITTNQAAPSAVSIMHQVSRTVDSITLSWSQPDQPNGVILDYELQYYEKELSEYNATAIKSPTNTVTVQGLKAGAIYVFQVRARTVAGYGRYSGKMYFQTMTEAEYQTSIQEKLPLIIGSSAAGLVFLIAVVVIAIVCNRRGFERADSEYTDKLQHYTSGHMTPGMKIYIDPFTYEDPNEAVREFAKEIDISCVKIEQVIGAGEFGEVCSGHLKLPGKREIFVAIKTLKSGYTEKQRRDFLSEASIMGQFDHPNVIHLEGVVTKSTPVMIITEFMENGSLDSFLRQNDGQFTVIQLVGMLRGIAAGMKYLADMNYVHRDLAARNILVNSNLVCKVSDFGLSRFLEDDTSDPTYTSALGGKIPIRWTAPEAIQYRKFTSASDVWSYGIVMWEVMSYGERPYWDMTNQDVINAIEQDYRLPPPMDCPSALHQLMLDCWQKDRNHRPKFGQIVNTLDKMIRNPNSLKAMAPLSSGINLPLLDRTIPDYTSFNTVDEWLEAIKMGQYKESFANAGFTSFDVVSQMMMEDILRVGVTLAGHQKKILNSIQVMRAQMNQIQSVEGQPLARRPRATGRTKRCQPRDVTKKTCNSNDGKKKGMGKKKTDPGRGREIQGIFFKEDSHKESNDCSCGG
Method: as §1

EphB4 = EphB4 (Homo sapiens (Human), UniProt P54760); experiment: Endogenous EphB4 tyrosine phosphorylation by ELISA in HT29 cell lysates; format: cell-based
Chain of EphB4 (P54760 16-987): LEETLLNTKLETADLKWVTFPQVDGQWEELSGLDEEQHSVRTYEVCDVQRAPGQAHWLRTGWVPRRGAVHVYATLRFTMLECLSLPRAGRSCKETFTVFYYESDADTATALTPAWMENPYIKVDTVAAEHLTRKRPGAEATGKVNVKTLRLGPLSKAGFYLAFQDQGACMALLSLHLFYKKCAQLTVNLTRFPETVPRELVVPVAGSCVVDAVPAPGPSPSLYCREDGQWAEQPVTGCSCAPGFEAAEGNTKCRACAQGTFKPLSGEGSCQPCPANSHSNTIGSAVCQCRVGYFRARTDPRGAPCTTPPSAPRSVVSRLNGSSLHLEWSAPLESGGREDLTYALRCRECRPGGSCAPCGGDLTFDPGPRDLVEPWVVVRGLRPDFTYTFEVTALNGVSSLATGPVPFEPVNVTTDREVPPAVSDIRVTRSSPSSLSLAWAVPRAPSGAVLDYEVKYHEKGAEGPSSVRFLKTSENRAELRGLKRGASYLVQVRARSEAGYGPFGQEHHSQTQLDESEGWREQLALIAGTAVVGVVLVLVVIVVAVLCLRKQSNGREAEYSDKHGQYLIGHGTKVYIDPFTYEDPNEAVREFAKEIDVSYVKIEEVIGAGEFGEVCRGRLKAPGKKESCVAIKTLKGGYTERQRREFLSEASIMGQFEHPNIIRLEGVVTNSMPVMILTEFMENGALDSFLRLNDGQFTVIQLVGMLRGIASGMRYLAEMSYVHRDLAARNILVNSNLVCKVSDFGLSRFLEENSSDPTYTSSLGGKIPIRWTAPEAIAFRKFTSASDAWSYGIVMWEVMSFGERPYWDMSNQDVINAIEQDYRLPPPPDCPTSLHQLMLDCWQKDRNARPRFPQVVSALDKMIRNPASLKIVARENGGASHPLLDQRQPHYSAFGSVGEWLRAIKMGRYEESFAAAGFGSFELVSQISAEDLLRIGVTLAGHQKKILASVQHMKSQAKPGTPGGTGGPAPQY
Method: as §1

EphA2 [3] = biological target: T1, EphA2; experiment: Binding affinity to EphA2 by microscale thermophoresis (MST); conditions: for Kd: towards EphA2
Excerpt: The binding affinities of the compounds to EphA2 were investigated by microscale thermophoresis (MST) (M. Jerabek-Willemsen et al., J. Mol. Struct. 2014, 1077, 101-113).

LC3 = LC3 autophagic puncta imaging in HT-29 cells transduced with fluorescent LC3; format: cell-based, human; conditions: spautin 4-hour pretreatment
Method: Autophagy-related cell death was assessed by evaluation of LC3 autophagy-associated protein. The cells were first induced to stably express fluorescent pK (pHluorin-mKate2) LC3 by lentiviral infection. The cells were subsequently grown on glass coverslips (ThermoFisher, 12-545-81) until 50% confluent. Coverslips were washed with PBS −/−, fixed with 4% PEA for 15 minutes at room temperature, washed with TBS, mounted with DAPI-containing mounting media, allowed to harden overnight and sealed. Coverslips were imaged on a confocal Zeiss 780 microscope. Images were analyzed by CellProfiler using automatic thresholding to calculate the number of nuclei (DAPI staining) and the number of puncta. The results are expressed as the percent cells with two or more puncta. […] Monolayer cell confluency overtime was measured by IncuCyte HD (Essen BioSciences) imaging.
Immunostaining and microscopy. […] Maximum intensity projections (Zen Software 2.3 Blue Edition; Carl Zeiss) were used for quantification using CellProfiler software (Kamentsky et al., Bioinformatics 2011, 27:1179-1180) with automatic thresholding. Integrated intensity of CD31 was measured. The percent Ki-67 positive cells was measured by calculating the number of Ki-67 positive cells/total number DAPI^+ nuclei. The area of cleaved Caspase-3 positive area/total area was calculated by CellProfiler with automatic threshold. […]

HT-29 cells = experiment: HT-29 cell proliferation (3H-thymidine incorporation); format: cell-based, human; conditions: co-treatment with autophagy inhibitor, 72 hours
Method: Cell proliferation was measured by ^3H-Thymidine incorporation. Briefly, 0.5 μCi ^3H-Thymidine (Perkin Elmer, Waltham, MA; NET027WW001MC) was added to cells in 200 μL of culture media in a 96 well plate for 8-18 hours. Plates were frozen to stop cell growth, cells harvested onto glass fiber filters (Perkin Elmer, 1450-421) dried by microwave, wet with FiltronX liquid scintillation fluid (National Diagnostics, Atlanta, GA; LS-201) and incorporated radioactivity counted in a liquid scintillation counter (Perkin Elmer, MicroBeta-1450 or MicroBeta-2450). […] All lines were used for a maximum number of 10-15 passages over ˜4 years. All cell lines tested negative for mycoplasma (yearly) and MTBM (Molecular Testing of Biological Materials; tested once).

LC3B [4] = experiment: LC3B accumulation in SW620 cells; format: cell-based, human; conditions: pre-treatment 4 hours; spautin 5 μM, 3-MA 5 mM
Method: Western blotting. Protein lysates were separated by SDS-PAGE and then transferred to a nitrocellulose membrane. After blocking, membranes were incubated overnight with antibodies to LC3 (rabbit Monoclonal antibody, Cell Signaling). After washing with TBS-T (TBS with 0.05 Tween-20), membranes were incubated with the HRP (Horseradish peroxidase)-linked secondary antibody (IgG donkey anti-rabbit IgG (NA934) (GE LifeSciences, Marlborough, MA). Blots were developed using ECL prime (GE LifeSciences, RPN2232) and digitally captured on an LAS4000 (GE LifeSciences). After stripping, the membrane was re-probed with a mouse monoclonal antibody to GAPDH (Santa Cruz) followed by a secondary IgG sheep anti-mouse IgG (NA931). Western blot bands were quantified using Fiji (Schindelin et al., 2012).

[5] = system: colorectal carcinoma cell lines; experiment: Proliferation of 10 colorectal carcinoma cell lines; format: cell-based, human; conditions: 1 μM, all colorectal carcinoma cell lines

Cc1ccc(C(=O)Nc2cccc(C(F)(F)F)c2)cc1Nc1nc(-c2cncnc2)nc2c1cnn2C [@3, 4-Methyl-3-((1-methyl-6-(pyrimidin-5-yl)-1H-pyrazolo[3,4-d]pyrimidin-4-yl)amino)-N-(3-(trifluoromethyl)phenyl)benzamide]
induction of autophagosome marker LC3B (immunoblotting) (LC3B [1]; 72-hour incubation): failure
cleaved caspase-3 detection in treated cells (SW620 cells): only in a minority of cells
distribution of cells within the cell cycle (SW620): marked reduction of the proportion of cells within the G2M phase
inhibitory activity for p-EphA2 compared to NVP (EphA2 [2]; four hours treatment): comparable or only slightly reduced inhibitory activity
inhibitory activity for p-EphB2 compared to NVP (EphB2; four hours treatment): comparable or only slightly reduced inhibitory activity
inhibitory activity for p-EphB4 compared to NVP (EphB4; four hours treatment): comparable or only slightly reduced inhibitory activity

Cc1cc(C(=O)Nc2cccc(C(F)(F)F)c2)ccc1Nc1nc(N2CC[C@H](O)C2)nc(-n2ccnc2)n1 [@12]
Kd (EphA2 [3]): 132 nM

Fc1ccc(CNc2ncnc3ccc(F)cc23)cc1 [Spautin, spautin-1]
LC3B accumulation in cells treated with 1 μM NVP or NVP-Iso (LC3B [1]): reduced accumulation of LC3B
LC3-related puncta/cell increased by NVP and NVP-Iso (LC3): reduces this drug-effect
anti-proliferative effects of NVP and NVP-Iso in colorectal cancer cells (HT-29 cells): mitigated the anti-proliferative
LC3B accumulation induced by NVP and NVP-Iso in SW620 cells (LC3B [4]): reduces this LC3B accumulation

Cc1cc(C(=O)Nc2cccc(C(F)(F)F)c2)ccc1Nc1nc(-c2cnccn2)nc2nn(C)cc12 [@7]
Kd (EphA2 [3]): ~2880 nM

Cc1cc(C(=O)Nc2cccc(C(F)(F)F)c2)ccc1Nc1nc(N2CCNCC2)nc(-n2ccnc2)n1 [@11]
Kd (EphA2 [3]): 443 nM

Cc1ccc(C(=O)Nc2cccc(Cl)c2)cc1Nc1nc(N2CC[C@H](O)C2)nc(-n2ccnc2)n1 [@13, (S)-N-(3-chlorophenyl)-3-((4-(3-hydroxypyrrolidin-1-yl)-6-(1H-imidazol-1-yl)-1,3,5-triazin-2-yl)amino)-4-methylbenzamide]
Kd (EphA2 [3]): 97 nM

Cc1ccc(C(=O)Nc2cccc(C(F)(F)F)c2)cc1Nc1nc(-c2cnccn2)nc2nn(C)cc12 [@2, 4-Methyl-3-((2-methyl-6-(pyrazin-2-yl)-2H-pyrazolo[3,4-d]pyrimidin-4-yl)amino)-N-(3-(trifluoromethyl)-phenyl)benzamide]
fold lower binding affinity towards EphA2 (EphA2 [3]; compared with @1 and @3): 44 fold
Kd (EphA2 [3]): 132 nM

Cc1cc(C(=O)Nc2cccc(C(F)(F)F)c2)ccc1Nc1nc(N2CCCC2)nc(-n2ccnc2)n1 [@9]
Kd (EphA2 [3]): 34 nM

CCN(CC)CCCC(C)Nc1ccnc2cc(Cl)ccc12 (stereo not shown) [chloroquine, Chloroquine]
LC3B accumulation in cells treated with 1 μM NVP or NVP-Iso (LC3B [1]): enhanced the accumulation of LC3B

Cc1ccc(C(=O)Nc2cccc(C(F)(F)F)c2)cc1Nc1nc(-c2cccnc2)nc2c1cnn2C [NVP, NVP-BHG712]
reduction of proliferation [5]: > 50%

Cc1ccc(C(=O)Nc2cccc(C(F)(F)F)c2)cc1Nc1nc(-c2cccnc2)nc2ccccc12 [@4, 4-Methyl-3-((2-(pyridin-3-yl)quinazolin-4-yl)amino)-N-(3-(trifluoromethyl)phenyl)benzamide]
Kd (EphA2 [3]): 86 nM

Cc1ccc(C(=O)Nc2cccc(C(F)(F)F)c2)cc1Nc1nc(-c2cccnc2)nc(-c2cccnc2)n1 [@6, 3-((4,6-Di(pyridin-3-yl)-1,3,5-triazin-2-yl)amino)-4-methyl-N-(3-(trifluoromethyl)phenyl)benzamide]
Kd (EphA2 [3]): 24 nM

Cn1cnc(N)c2ncnc1-2 [3-Methyladenine]
LC3B accumulation in cells treated with 1 μM NVP or NVP-Iso (LC3B [1]): reduced accumulation of LC3B
anti-proliferative effects of NVP and NVP-Iso in colorectal cancer cells (HT-29 cells): mitigated the anti-proliferative
LC3B accumulation induced by NVP and NVP-Iso in SW620 cells (LC3B [4]): reduces this LC3B accumulation

Cc1ccc(C(=O)Nc2cccc(C(F)(F)F)c2)cc1Nc1nc(-c2cccnc2)nc2ncccc12 [@5, 4-Methyl-3-((2-(pyridin-3-yl)pyrido[2,3-d]pyrimidin-4-yl)amino)-N-(3-(trifluoromethyl)phenyl)benzamide]
Kd (EphA2 [3]): 225 nM
reduction of EphA2 phosphorylation (EphA2 [2]; at 2 μM): marginal reduction
reduction of EphB2 phosphorylation (EphB2; at 2 μM): marginal reduction
reduction of EphB4 phosphorylation (EphB4; at 2 μM): marginal reduction
